Activity calls are given as the source filed them. The rule behind the calls is not given here.
Tests used:
[1] = test system: SW1990; assay: Antitumor activity against human SW1990 cells xenografted in BALB/c nude mouse model assessed as decrease in Snail level at 30 to 60 mg/kg, ip for 21 days consecutively by Western blot analysis; assay type: functional, organism-based; conditions: dose 30-60 mg/kg, time 21.0 day
[2] = test system: SW1990; assay: Induction of apoptosis in human SW1990 cells assessed as late apoptotic cells at 1 uM incubated for 6 days by Annexin V/PI staining based flow cytometry (reference value: 2.01 %); assay type: functional; conditions: time 6 day
[3] = test system: SW1990; assay: Antitumor activity against human SW1990 cells xenografted in BALB/c nude mouse model assessed as increase in E-cadherin level at 30 to 60 mg/kg, ip for 21 days consecutively by Western blot analysis; assay type: functional, organism-based; conditions: dose 30-60 mg/kg, time 21.0 day
[4] = test system: SW1990; assay: Induction of apoptosis in human SW1990 cells assessed as necrotic cells at 0.5 uM incubated for 6 days by Annexin V/PI staining based flow cytometry (reference value: 0.50 %); assay type: functional; conditions: time 6 day
[5] = Metabolic stability in mouse liver microsomes assessed as intrinsic clearance at 1 uM preincubated for 10 mins followed by NADPH measured for 60 mins by LC-MS/MS analysis; assay type: ADME, Microsome; conditions: time 70 min, read-out: CLH
[6] = test system: SW1990; assay: Inhibition of cell migration in human SW1990 cells at 0.5 to 2 uM by transwell assay; assay type: functional, cell-based; conditions: dose 0.5-2 µM
[7] = test system: SW1990; assay: Inhibition of colony formation of human SW1990 cells at 2 uM incubated for 6 days by crystal violet staining based analysis; assay type: functional, cell-based; conditions: time 6.0 day
[8] = test system: SW1990; assay: Downregulation of N-cadherin level in human SW1990 cells at 0.5 to 2 uM by Western blot analysis; assay type: functional, cell-based; conditions: dose 0.5-2 µM
[9] = test system: SW1990; assay: Induction of apoptosis in human SW1990 cells assessed as viable cells at 1 uM incubated for 6 days by Annexin V/PI staining based flow cytometry (reference value: 92.93 %); assay type: functional; conditions: SW1990, 144 h, time 6 day, read-out: Activity
[10] = test system: SW1990; assay: Induction of cell cycle arrest at S phase in human SW1990 cells at 0.5 uM incubated for 6 days by PI staining based flow cytometry (reference value: 21.20 %); assay type: functional; conditions: time 6 day
[11] = test system: SW1990; assay: Antitumor activity against human SW1990 cells xenografted in BALB/c nude mouse model assessed as change in cell contraction treated intraperitoneally for 21 days consecutively by H and E staining based analysis; assay type: functional; conditions: dose 30-60 mg/kg, route ip, time 21.0 day
[12] = test system: SW1990; assay: Induction of cell cycle arrest at G0/G1 phase in human SW1990 cells at 1 uM incubated for 6 days by PI staining based flow cytometry (reference value: 49.65 %); assay type: functional; conditions: time 6 day
[13] = test system: SW1990; assay: Antitumor activity against human SW1990 cells xenografted in BALB/c nude mouse model assessed as decrease in N-cadherin level at 30 to 60 mg/kg, ip for 21 days consecutively by Western blot analysis; assay type: functional, organism-based; conditions: dose 30-60 mg/kg, time 21.0 day
[14] = test system: CAKI-1; assay: Antiproliferative activity against human CAKI-1 cells assessed as inhibition cell proliferation incubated for 6 days by MTT assay; assay type: functional, cell-based; conditions: CAKI-1, 144 h
[15] = test system: SW1990; assay: Downregulation of Snail level in human SW1990 cells at 0.5 to 2 uM by Western blot analysis; assay type: functional, cell-based; conditions: dose 0.5-2 µM
[16] = test system: SW1990; assay: Antitumor activity against human SW1990 cells xenografted in BALB/c nude mouse model assessed as decrease in CD133 level at 30 to 60 mg/kg, ip for 21 days consecutively by IHC analysis; assay type: functional, organism-based; conditions: dose 30-60 mg/kg, time 21.0 day
[17] = test system: SW1990; assay: Induction of apoptosis in human SW1990 cells assessed as early apoptotic cells at 2 uM incubated for 6 days by Annexin V/PI staining based flow cytometry (reference value: 4.55 %); assay type: functional; conditions: time 6 day
[18] = test system: SW1990; assay: Induction of cell cycle arrest at G2/M phase in human SW1990 cells at 1 uM incubated for 6 days by PI staining based flow cytometry (reference value: 29.15 %); assay type: functional; conditions: time 6 day
[19] = test system: SW1990; assay: Induction of apoptosis in human SW1990 cells assessed as viable cells at 0.5 uM incubated for 6 days by Annexin V/PI staining based flow cytometry (reference value: 92.93 %); assay type: functional; conditions: SW1990, 144 h, time 6 day, read-out: Activity
[20] = test system: SW1990; assay: Potency index, ratio of DCLK1-IN-1 IC50 to test compound IC50 for human SW1990 cells assessed as inhibition cell proliferation incubated for 6 days by MTT assay; assay type: functional; conditions: time 6 day
[21] = test system: SW1990; assay: Induction of cell cycle arrest at S phase in human SW1990 cells at 2 uM incubated for 6 days by PI staining based flow cytometry (reference value: 21.20 %); assay type: functional; conditions: time 6 day
[22] = test system: SW1990; assay: Antitumor activity against human SW1990 cells xenografted in BALB/c nude mouse model assessed as change in nuclear chromatin marginalization treated intraperitoneally for 21 days consecutively by H and E staining based analysis; assay type: functional; conditions: dose 30-60 mg/kg, route ip, time 21.0 day
[23] = test system: SW1990; assay: Induction of apoptosis in human SW1990 cells assessed as viable cells at 2 uM incubated for 6 days by Annexin V/PI staining based flow cytometry (reference value: 92.93 %); assay type: functional; conditions: SW1990, 144 h, time 6 day, read-out: Activity
[24] = test system: SW1990; assay: Antitumor activity against human SW1990 cells xenografted in BALB/c nude mouse model assessed as tumor growth inhibition at 60 mg/kg, ip for 21 days consecutively relative to control; assay type: functional; conditions: SW1990, 504 h, time 21 day, read-out: TGI

COc1cc(N2CCN(C)CC2)ccc1Nc1nc(Nc2ccccc2S(=O)(=O)C(C)C)c2nc[nH]c2n1
Activity [1]: Active | Activity [2]: 7.06% | Activity [3]: Active | Activity [4]: 5.58% | CLint scaled at 1 µM [5]: 120 mL/min/kg | microsomal CLint at 1 µM [5]: 30.2 µL/min/mg | inhibition [6]: Active | inhibition [7]: Active | Activity [8]: Active | viability at 1 µM [9]: 65.3% | Activity [10]: 19.66% | Activity [11]: Dose-Dependent Effect | Activity [12]: 56.78% | Activity [13]: Active | IC50 [14]: 10.1 µM | Activity [15]: Active | Activity [16]: Active | Activity [17]: 21.76% | Activity [18]: 23.47% | viability at 0.5 µM [19]: 78.5% | Ratio IC50 [20]: 22 | Activity [21]: 14.23% | Activity [22]: Dose-Dependent Effect | viability at 2 µM [23]: 61% | inhibition in vivo at 60 mg/kg [24]: 68.6%

From ChEMBL document CHEMBL5634144, “Design, synthesis and biological evaluation of novel DCLK1 inhibitor containing purine skeleton for the treatment of pancreatic cancer” (Eur J Med Chem, 2023)
